# Biological target: recombinant PBP4 (Bacillus subtilis, UniProt P40750)
# Test: Gel electrophoresis BOCILLIN FL labeling of PBP4
# Type: binding
# Description: A second, yet lower resolution, approach was used to verify the impact of 9314848 on PBP4 substrate binding in which the protein was preincubated with compound or control antibiotics then labeled with the BOCILLIN FL and resulting fluorescent labeled protein was visualized following gel electrophoresis.
# The ability of putative PBP4 inhibitors to impact the active site of recombinant PBP4 was assessed using two previously established BOCILLIN-FL Penicillin (Penicillin V conjugated to BODIPY fluorescent dye) binding assays. First, fluorescence polarization assays were performed as previously described, but with minor modifications. Briefly, the indicated amount of the putative PBP4 inhibitor or control antibiotic was incubated with 1 µM recombinant B. subtilis PBP4 or S. aureus PBP2a in potassium phosphate buffer (40 mM K2HPO4 and 10 mM KH2PO4) for 1 h in black 96-well microtiter plates (Corning Life Sciences, Corning, NY, USA). Following incubation, 1 µM (final concentration) BOCILLIN FL penicillin was added, and the mixture was incubated for 30 min. BOCILLIN FL fluorescence polarization was measured at (495 nm excitation and 545 nm emission) in a SpectraMax M5 multimode plate reader (Molecular Devices, San Jose, CA, USA). All assays were repeated at least 8 times, averaged, and values falling outside of 2 standard deviations were considered outliers. The resulting data were plotted as percentage BOCILLIN FL binding inhibition = (T/U) × 100; T = FL polarization of ((PBP4+ BOCILLIN FL) − (PBP4+ BOCILLIN FL + inhibitor compound)), U = FL polarization of ((PBP4 + BOCILLIN FL) − (BOCILLIN FL)). Second, gel electrophoresis and fluorescence detection was used to measure BOCILLIN FL labeling of PBP4 treated with the known PBP4 inhibitor cefoxitin (positive control), kanamycin (negative control) or 9314848 (test compound), as previously described but with minor modifications. Briefly, 1 µM of recombinant PBP4 was mixed with 0, 50, 500, 2000, or 5000 µM 9314848 or control antibiotic in 50 mM phosphate buffer (pH 7.4) and incubated at 37 °C for 30 min. Next 40 μM of BOCILLIN FL was added to the reaction mixture and incubated for an additional 30 min at 37 °C. Reactions were stopped by adding 5× SDS-PAGE gel loading dye, heated at 100 °C for 3 min and separated by electrophoresis in 12% SDS-PAGE (2 h, 120 Volts). BOCILLIN FL labeled PBP4 was imaged at λ = 365 nm using a BioRad Gel Doc EZ Imaging system and the gel was then subsequently stained with Bio-safe Coomassie Brilliant Blue stain (BioRad, Hercules, CA, USA) to measure the amount of protein present in each reaction condition and analyzed using NIH-ImageJ software. The percent BOCILLIN FL binding was calculated by first normalizing the protein present in each reaction condition to that of untreated control and subsequently applying each reaction’s protein normalization factor to each reaction’s fluorescent signal. The percentage BOCILLIN FL binding inhibition was then calculated as the normalized band intensity of antibiotic/compound treated sample as compared to the control sample (PBP4 + BOCILLIN FL in the absence of compound).
# Sequence of recombinant PBP4 (P40750 22-624): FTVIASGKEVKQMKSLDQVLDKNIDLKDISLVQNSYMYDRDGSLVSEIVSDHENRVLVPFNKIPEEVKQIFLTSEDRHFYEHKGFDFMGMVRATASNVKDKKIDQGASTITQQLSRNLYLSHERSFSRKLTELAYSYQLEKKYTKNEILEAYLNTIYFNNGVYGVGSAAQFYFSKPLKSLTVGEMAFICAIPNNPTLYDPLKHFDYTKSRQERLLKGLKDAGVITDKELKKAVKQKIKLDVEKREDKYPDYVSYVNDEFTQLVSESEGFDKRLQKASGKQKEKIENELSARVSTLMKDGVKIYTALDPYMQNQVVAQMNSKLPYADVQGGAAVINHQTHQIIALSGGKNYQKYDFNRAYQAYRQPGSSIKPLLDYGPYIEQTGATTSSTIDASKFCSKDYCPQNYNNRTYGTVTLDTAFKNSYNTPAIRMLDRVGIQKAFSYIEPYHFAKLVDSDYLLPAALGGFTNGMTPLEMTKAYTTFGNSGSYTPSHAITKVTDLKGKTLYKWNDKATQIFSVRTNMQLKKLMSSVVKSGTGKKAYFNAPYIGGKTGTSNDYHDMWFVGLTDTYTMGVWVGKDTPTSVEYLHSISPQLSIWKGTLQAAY
compound,measurement,setting,value
CC1CCN(C(=O)c2cccc(NC(=O)Nc3ccc(Cl)cc3)c2)CC1 [Compound 9314848],inhibition at 50 µM,"50 µM compound, read-out: PBP4 BOCILLIN FL binding inhibition (gel-based)",37.5 ± 8.2%
same,inhibition at 5000 µM,"5000 µM compound, read-out: PBP4 BOCILLIN FL binding inhibition (gel-based)",72.1 ± 13.1%
same,PBP4 BOCILLIN FL binding inhibition (gel-based) at low concentration,concentrations below 50 µM,did not reproducibly demonstrate BOCILLIN FL binding inhibition

# Reference: paper PMC9598407, “Identification of Staphylococcus aureus Penicillin Binding Protein 4 (PBP4) Inhibitors” (Antibiotics, 2022)
